# Measurements: the NIST ThermoML archive (doi:10.1016/j.jct.2004.11.017)
# ± gives the expanded uncertainty stated by the source.
# Tests used:
# [1] = 101 kPa, Liquid
# [2] = xn = mol fraction of the nth substance listed; details: 101 kPa, Liquid, x2 = 0
Compound,mass density ([1]; 298.15 K) [kg/m3],mass density ([1]; 303.15 K) [kg/m3],mass density ([1]; 308.15 K) [kg/m3],mass density ([1]; 313.15 K) [kg/m3],mass density ([1]; 318.15 K) [kg/m3],mass density ([1]; 323.15 K) [kg/m3],mass density ([1]; 328.15 K) [kg/m3],mass density ([1]; 333.15 K) [kg/m3],mass density ([1]; 338.15 K) [kg/m3],mass density ([1]; 343.15 K) [kg/m3],mass density ([2]; 298.15 K) [kg/m3],mass density ([2]; 303.15 K) [kg/m3],mass density ([2]; 308.15 K) [kg/m3],mass density ([2]; 313.15 K) [kg/m3],mass density ([2]; 318.15 K) [kg/m3],mass density ([2]; 323.15 K) [kg/m3],mass density ([2]; 328.15 K) [kg/m3],mass density ([2]; 333.15 K) [kg/m3],mass density ([2]; 338.15 K) [kg/m3],mass density ([2]; 343.15 K) [kg/m3]
CC[S+]([O-])CC [diethyl sulfoxide],1010.2 ± 1.4,1005.8 ± 1.4,1001.4 ± 1.3,997 ± 1.3,992.6 ± 1.4,988.2 ± 1.5,983.9 ± 1.5,979.5 ± 1.6,975.1 ± 1.7,970.6 ± 1.8,,,,,,,,,,
O [water] + CC[S+]([O-])CC,,,,,,,,,,,996.6 ± 1.3,995.2 ± 1.4,993.6 ± 1.4,991.9 ± 1.4,989.7 ± 1.4,987.6 ± 1.5,985.3 ± 1.5,982.8 ± 1.6,979.3 ± 1.6,977.5 ± 1.6
